Biological target: T1, human GHS-R 1a (Homo sapiens, UniProt Q92847)
T1 construct: expressed in transfected cells; host or cells: LLC PK-1 porcine renal epithelial cells (ECACC No. 86121112), isolated plasma membranes
Assay: GHS-R 1a receptor-ligand binding assay (membrane preparations from transfected LLC PK-1 cells)
Conditions: displacement of 125I-His9-ghrelin (60 pM); membranes of LLC PK-1 cells transfected with human GHS-R 1a; mean of at least two independent experiments in triplicates
In short: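 Membranes from LLC PK-1 cells expressing human GHS-R 1a incubated 60 min at 25 °C in 50 mM Tris pH 7.3, 5 mM MgCl2, 2.5 mM EDTA, bacitracin with 60 pM 125I-ghrelin and competitor; nonspecific binding with 10^-6 M ghrelin; filtration read-out.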

T1 sequence (Q92847 whole entry): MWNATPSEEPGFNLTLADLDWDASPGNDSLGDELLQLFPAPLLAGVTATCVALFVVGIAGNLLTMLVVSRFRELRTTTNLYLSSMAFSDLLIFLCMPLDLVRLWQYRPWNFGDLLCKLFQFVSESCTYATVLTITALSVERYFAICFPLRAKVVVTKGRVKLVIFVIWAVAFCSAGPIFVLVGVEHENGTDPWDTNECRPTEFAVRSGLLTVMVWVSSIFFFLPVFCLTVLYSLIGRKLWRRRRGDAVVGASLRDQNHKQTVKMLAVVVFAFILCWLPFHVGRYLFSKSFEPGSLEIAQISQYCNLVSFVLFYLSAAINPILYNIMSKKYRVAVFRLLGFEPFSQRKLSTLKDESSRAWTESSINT

Structure (SMILES) | IC50 [nM]
COc1ccc(Cn2c(CCc3ccccc3)nnc2[C@@H](Cc2c[nH]c3ccccc23)NC(=O)[C@@H]2CCCN2)c(OC)c1 [compound 68, (S)—N—((R)-1-(4-(2,4-dimethoxybenzyl)-5-phenethyl-4H-1,2,4-triazol-3-yl)-2-(1H-indol-3-yl)ethyl)pyrrolidine-2-carboxamide] | 44
COc1ccc(Cn2c(CCc3ccccc3)nnc2[C@@H](Cc2c[nH]c3ccccc23)NC(=O)CN)c(OC)c1 [compound 75, (R)—N-(1-(4-(2,4-dimethoxybenzyl)-5-phenethyl-4H-1,2,4-triazol-3-yl)-2-(1H-indol-3-yl)ethyl)-2-aminoacetamide] | 140
COc1ccc(Cn2c(CCc3ccccc3)nnc2[C@@H](Cc2c[nH]c3ccccc23)NC(=O)c2cnccn2)cc1 [compound 76, (R)—N-(1-(4-(4-methoxybenzyl)-5-phenethyl-4H-1,2,4-triazol-3-yl)-2-(1H-indol-3-yl)ethyl)pyrazine-2-carboxamide] | 14
COc1ccc(Cn2c(CCc3ccccc3)nnc2[C@@H](Cc2c[nH]c3ccccc23)NC(=O)c2ccncc2)cc1 [compound 77, (R)—N-(1-(4-(4-methoxybenzyl)-5-phenethyl-4H-1,2,4-triazol-3-yl)-2-(1H-indol-3-yl)ethyl)isonicotinamide] | 119
COc1ccc(Cn2c(CCc3ccccc3)nnc2[C@@H](Cc2c[nH]c3ccccc23)NC(=O)C2CNCCN2)cc1 (some centres unmarked) [compound 78] | 54
COc1ccc(Cn2c(CCc3ccccc3)nnc2[C@@H](Cc2c[nH]c3ccccc23)NC(=O)c2ccccn2)cc1 [compound 79, (R)—N-(1-(4-(4-methoxybenzyl)-5-phenethyl-4H-1,2,4-triazol-3-yl)-2-(1H-indol-3-yl)ethyl)picolinamide] | 0.7
CCc1ccc(Cn2c(CCc3ccccc3)nnc2[C@@H](Cc2c[nH]c3ccccc23)NC(=O)Cc2ccccn2)cc1 [compound 82, (R)—N-(1-(4-(4-ethylbenzyl)-5-phenethyl-4H-1,2,4-triazol-3-yl)-2-(1H-indol-3-yl)ethyl)-2-(pyridin-2-yl)acetamide] | 51
CCc1ccc(Cn2c(CCc3ccccc3)nnc2[C@@H](Cc2c[nH]c3ccccc23)NC(=O)C2CCNCC2)cc1 [compound 83, (R)—N-(1-(4-(4-ethylbenzyl)-5-phenethyl-4H-1,2,4-triazol-3-yl)-2-(1H-indol-3-yl)ethyl)piperidine-4-carboxamide] | 19
CCc1ccc(Cn2c(CCc3ccccc3)nnc2[C@@H](Cc2c[nH]c3ccccc23)NC(=O)c2cnccn2)cc1 [compound 85, (R)—N-(1-(4-(4-ethylbenzyl)-5-phenethyl-4H-1,2,4-triazol-3-yl)-2-(1H-indol-3-yl)ethyl)pyrazine-2-carboxamide] | 89
COc1ccc(Cn2c(CCc3c[nH]c4ccccc34)nnc2[C@@H](Cc2c[nH]c3ccccc23)NC(=O)C2CCCCC2N)c(OC)c1 (stereo partly drawn) [compound 86, (R)—N-(1-(5-(2-(1H-indol-3-yl)ethyl)-4-(2,4-dimethoxybenzyl)-4H-1,2,4-triazol-3-yl)-2-(1H-indol-3-yl)ethyl)-2-cis-aminocyclohexanecarboxamide] | 143
O=C(N[C@H](Cc1c[nH]c2ccccc12)c1nnc(CCc2ccccc2)n1Cc1cccs1)C1CCNCC1 [compound 94, (R)—N-(2-(1H-indol-3-yl)-1-(5-phenethyl-4-(thiophen-2-ylmethyl)-4H-1,2,4-triazol-3-yl)ethyl)piperidine-4-carboxamide] | 255
COc1cc(Cn2c(Cc3ccccc3)nnc2[C@@H](Cc2c[nH]c3ccccc23)NC(=O)C(C)(C)N)cc(OC)c1 [compound 108, (R)—N-(1-(4-(3,5-dimethoxybenzyl)-5-benzyl-4H-1,2,4-triazol-3-yl)-2-(1H-indol-3-yl)ethyl)-2-amino-2-methylpropanamide] | 250
CCc1ccc(Cn2c(CCc3ccccc3)nnc2[C@@H](Cc2c[nH]c3ccccc23)NC(=O)c2ccccn2)cc1 [compound 138, N—((R)-1-(4-(4-ethylbenzyl)-5-phenethyl-4H-1,2,4-triazol-3-yl)-2-(1H-indol-3-yl)ethyl)picolinamide] | 44
O=C(N[C@H](Cc1c[nH]c2ccccc12)c1nnc(CCc2ccccc2)n1-c1ccccc1)c1ccccn1 [compound 146, N—((R)-2-(1H-indol-3-yl)-1-(5-phenethyl-4-phenyl-4H-1,2,4-triazol-3-yl)ethyl)picolinamide] | 105
CCc1ccc(-n2c(CCc3c[nH]c4ccccc34)nnc2[C@@H](Cc2c[nH]c3ccccc23)NC(=O)Cc2ccccn2)cc1 [compound 148, N—((R)-1-(5-(2-(1H-indol-3-yl)ethyl)-4-(4-ethylphenyl)-4H-1,2,4-triazol-3-yl)-2-(1H-indol-3-yl)ethyl)-2-(pyridin-2-yl)acetamide] | 96
CCc1ccc(Cn2c(CCc3ccccc3)nnc2[C@@H](Cc2c[nH]c3ccccc23)NC(=O)[C@H]2CCCNC2)cc1 [compound 155, (3S)—N—((R)-1-(4-(4-ethylbenzyl)-5-phenethyl-4H-1,2,4-triazol-3-yl)-2-(1H-indol-3-yl)ethyl)piperidine-3-carboxamide] | 188
O=C(N[C@H](Cc1c[nH]c2ccccc12)c1nnc(CCc2c[nH]c3ccccc23)n1-c1ccccc1)c1ccccn1 [compound 157, N—((R)-1-(5-(2-(1H-indol-3-yl)ethyl)-4-phenyl-4H-1,2,4-triazol-3-yl)-2-(1H-indol-3-yl)ethyl)picolinamide] | 160
O=C(N[C@H](Cc1c[nH]c2ccccc12)c1nnc(CCc2c[nH]c3ccccc23)n1-c1ccccc1)C1CCNCC1 [compound 158, N—((R)-1-(5-(2-(1H-indol-3-yl)ethyl)-4-phenyl-4H-1,2,4-triazol-3-yl)-2-(1H-indol-3-yl)ethyl)piperidine-4-carboxamide] | 70

Further lines, results first:

IC50 [nM] | Structure (SMILES)
38 | COc1ccc(Cn2c(CCc3c[nH]c4ccccc34)nnc2[C@@H](Cc2c[nH]c3ccccc23)NC(=O)CN)c(OC)c1 [compound 69, (R)—N-(1-(5-(2-(1H-indol-3-yl)ethyl)-4-(2,4-dimethoxybenzyl)-4H-1,2,4-triazol-3-yl)-2-(1H-indol-3-yl)ethyl)-2-aminoacetamide]
6 | COc1ccc(Cn2c(CCc3c[nH]c4ccccc34)nnc2[C@@H](Cc2c[nH]c3ccccc23)NC(=O)[C@@H]2CCCN2)c(OC)c1 [compound 70, (S)—N—((R)-1-(5-(2-(1H-indol-3-yl)ethyl)-4-(2,4-dimethoxybenzyl)-4H-1,2,4-triazol-3-yl)-2-(1H-indol-3-yl)ethyl)pyrrolidine-2-carboxamide]
1.8 | COc1ccc(Cn2c(CCc3c[nH]c4ccccc34)nnc2[C@@H](Cc2c[nH]c3ccccc23)NC(=O)c2ccccn2)c(OC)c1 [compound 73, (R)—N-(1-(5-(2-(1H-indol-3-yl)ethyl)-4-(2,4-dimethoxybenzyl)-4H-1,2,4-triazol-3-yl)-2-(1H-indol-3-yl)ethyl)picolinamide]
10 | COc1ccc(Cn2c(CCc3c[nH]c4ccccc34)nnc2[C@@H](Cc2c[nH]c3ccccc23)NC(=O)[C@H]2CCCNC2)cc1 [compound 87, (S)—N—((R)-1-(5-(2-(1H-indol-3-yl)ethyl)-4-(4-methoxybenzyl)-4H-1,2,4-triazol-3-yl)-2-(1H-indol-3-yl)ethyl)piperidine-3-carboxamide]
29 | COc1ccc(Cn2c(CCc3c[nH]c4ccccc34)nnc2[C@@H](Cc2c[nH]c3ccccc23)NC(=O)[C@H]2CCCCN2)cc1 [compound 88, (R)—N—((R)-1-(5-(2-(1H-indol-3-yl)ethyl)-4-(4-methoxybenzyl)-4H-1,2,4-triazol-3-yl)-2-(1H-indol-3-yl)ethyl)piperidine-2-carboxamide]
9 | COc1ccc(Cn2c(CCc3c[nH]c4ccccc34)nnc2[C@@H](Cc2c[nH]c3ccccc23)NC(=O)[C@@H]2CCCN2)cc1 [compound 89, (S)—N—((R)-1-(5-(2-(1H-indol-3-yl)ethyl)-4-(4-methoxybenzyl)-4H-1,2,4-triazol-3-yl)-2-(1H-indol-3-yl)ethyl)pyrrolidine-2-carboxamide]
11 | COc1ccc(Cn2c(CCc3c[nH]c4ccccc34)nnc2[C@@H](Cc2c[nH]c3ccccc23)NC(=O)Cc2ccccn2)cc1 [compound 91, (R)—N-(1-(5-(2-(1H-indol-3-yl)ethyl)-4-(4-methoxybenzyl)-4H-1,2,4-triazol-3-yl)-2-(1H-indol-3-yl)ethyl)-2-(pyridin-2-yl)acetamide]
200 | CC(C)(N)C(=O)N[C@H](Cc1c[nH]c2ccccc12)c1nnc(CCc2c[nH]c3ccccc23)n1Cc1ccc(Br)cc1 [compound 92, (R)—N-(1-(5-(2-(1H-indol-3-yl)ethyl)-4-(4-bromobenzyl)-4H-1,2,4-triazol-3-yl)-2-(1H-indol-3-yl)ethyl)-2-amino-2-methylpropanamide]
106 | COc1ccc(Cn2c(CCc3c[nH]c4ccccc34)nnc2[C@@H](Cc2c[nH]c3ccccc23)NC(=O)Cc2ccncc2)cc1 [compound 136, N—((R)-1-(5-(2-(1H-indol-3-yl)ethyl)-4-(4-methoxybenzyl)-4H-1,2,4-triazol-3-yl)-2-(1H-indol-3-yl)ethyl)-2-(pyridin-4-yl)acetamide]
49 | CCc1ccc(-n2c(CCc3c[nH]c4ccccc34)nnc2[C@@H](Cc2c[nH]c3ccccc23)NC(=O)c2ccccn2)cc1 [compound 147, N—((R)-1-(5-(2-(1H-indol-3-yl)ethyl)-4-(4-ethylphenyl)-4H-1,2,4-triazol-3-yl)-2-(1H-indol-3-yl)ethyl)picolinamide]
138 | COc1ccc(Cn2c(CCc3c[nH]c4ccccc34)nnc2[C@@H](Cc2c[nH]c3ccccc23)NC(=O)CN)cc1 [compound 152, N—((R)-1-(5-(2-(1H-indol-3-yl)ethyl)-4-(4-methoxybenzyl)-4H-1,2,4-triazol-3-yl)-2-(1H-indol-3-yl)ethyl)-2-aminoacetamide]
